Consider two compounds from article PMC11620503 (Antimicrobial Agents and Chemotherapy, 2024).

Values after ≈ are worked out from the molar mass of the structure shown.

Test [1] deals with Clostridioides difficile ATCC 700057. The test is described as follows: MIC, agar dilution, reference strains of anaerobic bacteria. The test is classed as cell-based. Conditions: ATCC700057.
Test [2] relates to Clostridioides difficile ATCC 43255. Described as above. It counts as cell-based. Conditions: ATCC43255.
Test [3] has as its system Clostridioides difficile ATCC BAA-1803. The description is as above. The test is classed as cell-based. Conditions: ATCCBAA1803.
Test [4] has as its system Clostridioides difficile ATCC BAA-1870. The test is described as above. The test is classed as cell-based. Conditions: ATCCBAA1870.
Test [5] concerns Clostridium perfringens ATCC 13124. The test can be described thus: microbe, parasite or virus in culture. The test is classed as cell-based. Conditions: ATCC13124.
The test system of test [6] is Peptostreptococcus anaerobius ATCC 27337. The test is described as follows: MIC, agar dilution, reference strains of anaerobic bacteria. The test is classed as cell-based. Conditions: ATCC27337.
Test [7] concerns Peptoniphilus asaccharolyticus ATCC 14963. The test is described as above. It counts as cell-based. Conditions: ATCC14963.
The next test deals with Parvimonas micra KUB3000. The test is described as above. The test is classed as cell-based.
The subject of test [8] is Finegoldia magna ATCC 29328. The description is as above. It counts as cell-based. Conditions: ATCC29328.
The subject of test [9] is Eggerthella lenta ATCC 43055. Described as above. It counts as cell-based. Conditions: ATCC43055.
The next test concerns Olsenella uli KUB3012. Described as above. It counts as cell-based.
Test [10] relates to Bulleidia extructa KUB3013. The test is described as above. The test is classed as cell-based.
The test system of another test is Atopobium rimae KUB3014. The description is as above. It counts as cell-based. Conditions: Lancefieldella rimae.
The subject of test [11] is Propionibacterium acnes ATCC 11827. Described as above. The test is classed as cell-based. Conditions: Cutibacterium acnes, ATCC11827.
In test [12] the test system is Actinomyces odontolyticus ATCC 17929. Described as above. It counts as cell-based. Conditions: Schaalia odontolytica, ATCC17929.
For test [13], the system named is Bacteroides fragilis ATCC 25285. The description is as above. Conditions: ATCC25285. The test is classed as cell-based.
In test [14] the test system is Bacteroides fragilis KUB2982. Described as above. The test is classed as cell-based.
The test system of test [15] is Bacteroides fragilis KUB2983. The description is as above. The test is classed as cell-based.
Test [16] deals with Bacteroides thetaiotaomicron ATCC 29741. The test is described as above. The test is classed as cell-based. Conditions: ATCC29741.
For test [17], the system named is Bacteroides thetaiotaomicron KUB2984. Described as above. It counts as cell-based.
The subject of test [18] is Bacteroides ovatus KUB3009. The test is described as above. It counts as cell-based.
The subject of test [19] is Prevotella histicola KUB2989. Described as above. It counts as cell-based.
The subject of test [20] is Prevotella intermedia KUB2991. The test is described as above. The test is classed as cell-based.
Test [21] concerns Prevotella melaninogenica KUB3005. The test is described as above. It counts as cell-based.
Test [22] concerns Prevotella buccae KUB2992. Described as above. The test is classed as cell-based. Conditions: Segatella buccae.
The test system of test [23] is Fusobacterium varium ATCC 27725. Described as above. Conditions: ATCC27725. The test is classed as cell-based.
Test [24] concerns Fusobacterium nucleatum ATCC 25586. The description is as above. It counts as cell-based. Conditions: ATCC25586.
In a further test the target is CTX-M-14 (Escherichia coli, UniProt Q9L5C7). The test can be described thus: Ki app determination (Waley's method). Conditions: read-out: Ki app; CTX-M-14; means from three independent studies.
The next test concerns the target CTX-M-15 (Escherichia coli, UniProt Q9EXV5). The test is described as follows: Ki app determination (Waley's method). Conditions: read-out: Ki app; CTX-M-15; means from three independent studies.
The next test addresses CTX-M-27 (Escherichia coli, UniProt Q840M4). The test is described as follows: Ki app determination (Waley's method). Conditions: read-out: Ki app; CTX-M-27; means from three independent studies.
The next test deals with SHV-2 (Klebsiella pneumoniae, UniProt P0A9Z8). The test is described as follows: Ki app determination (Waley's method). Conditions: read-out: Ki app; SHV-2; means from three independent studies.
The target of a further test is SHV-5 (Klebsiella pneumoniae, UniProt P0A3M1). The test can be described thus: Ki app determination (Waley's method). Conditions: read-out: Ki app; SHV-5; means from three independent studies.
The target of another test is SHV-12 (Klebsiella pneumoniae, UniProt P0A3M1, L31Q). The test can be described thus: Ki app determination (Waley's method). Conditions: read-out: Ki app; SHV-12; means from three independent studies.
In another test the target is ACT-17 (Enterobacter cloacae complex, UniProt Q8KP20). The test can be described thus: Ki app determination (Waley's method). Conditions: read-out: Ki app, means from three independent studies.
Another test concerns the target PDC-11 (Pseudomonas aeruginosa, UniProt P24735, form not given, species not given). The test can be described thus: Ki app determination (Waley's method). Conditions: read-out: Ki app, means from three independent studies.
A further test concerns the target KPC-2 (Klebsiella pneumoniae, UniProt Q9F663). The test is described as follows: Ki app determination (Waley's method). Conditions: read-out: Ki app; KPC-2; means from three independent studies.
The target in a further test is KPC-3 (Klebsiella pneumoniae, UniProt Q9F663, H272Y). The test can be described thus: Ki app determination (Waley's method). Conditions: read-out: Ki app; KPC-3; means from three independent studies.
A further test addresses KPC-38 (Klebsiella pneumoniae, UniProt Q9F663). The test is described as follows: Ki app determination (Waley's method). Conditions: read-out: Ki app, means from three independent studies.
Another test concerns the target OXA-48 (Klebsiella pneumoniae, UniProt Q6XEC0). The test is described as follows: Ki app determination (Waley's method). Conditions: read-out: Ki app; OXA-48; means from three independent studies.
The target of the next test is OXA-23 (Acinetobacter baumannii, UniProt Q9L4P2). The test is described as follows: Ki app determination (Waley's method). Conditions: read-out: Ki app; OXA-23; means from three independent studies.
The next test concerns the target OXA-24 (Acinetobacter baumannii, UniProt Q8RLA6). The test can be described thus: Ki app determination (Waley's method). Conditions: read-out: Ki app; OXA-24; means from three independent studies.
For a further test, the target named is OXA-65 (Acinetobacter baumannii, UniProt Q58XD3). The test is described as follows: Ki app determination (Waley's method). Conditions: read-out: Ki app; OXA-65; means from three independent studies.
The next test addresses OXA-66 (Acinetobacter baumannii, UniProt Q58XD2). The test can be described thus: Ki app determination (Waley's method). Conditions: read-out: Ki app; OXA-66; means from three independent studies.
The next test addresses OXA-72 (Acinetobacter baumannii, UniProt Q5XQU0). The test is described as follows: Ki app determination (Waley's method). Conditions: read-out: Ki app; OXA-72; means from three independent studies.
The target of another test is VIM-1 (Pseudomonas aeruginosa, UniProt A0A0F7KYQ8). The test is described as follows: Ki app determination (Waley's method). Conditions: read-out: Ki app; VIM-1; means from three independent studies.
For a further test, the target named is VIM-2 (Escherichia coli, UniProt Q5U7L7). The test is described as follows: Ki app determination (Waley's method). Conditions: read-out: Ki app; VIM-2; means from three independent studies.
A further test deals with IMP-1 (Serratia marcescens, UniProt P52699). The test is described as follows: Ki app determination (Waley's method). Conditions: read-out: Ki app; IMP-1; means from three independent studies.
The target of a further test is IMP-6 (Serratia marcescens, UniProt P52699, S214G). The test can be described thus: Ki app determination (Waley's method). Conditions: read-out: Ki app; IMP-6; means from three independent studies.

For `Cc1ncc([N+](=O)[O-])n1CCO` [Metronidazole, metronidazole], the MIC stood at 0.5 µg/mL (≈ 2.92 µM) in test [1]; 1 µg/mL (≈ 5.84 µM) in test [2]; 2 µg/mL (≈ 11.7 µM) in [3]; 1 µg/mL (≈ 5.84 µM) in [4]; 2 µg/mL (≈ 11.7 µM) in [5]; 0.5 µg/mL (≈ 2.92 µM) in test [6]. For the same compound, the MIC in [7] came to 1 µg/mL (≈ 5.84 µM); with Parvimonas micra KUB3000 it was 0.5 µg/mL (≈ 2.92 µM); in test [8], 2 µg/mL (≈ 11.7 µM); in test [9] it was 1 µg/mL (≈ 5.84 µM); in the test with Olsenella uli KUB3012 it was 4 µg/mL (≈ 23.4 µM); in test [10] it was 2 µg/mL (≈ 11.7 µM). Also, the MIC is 1 µg/mL (≈ 5.84 µM) against Atopobium rimae KUB3014; > 64 µg/mL in test [11]; > 64 µg/mL in [12]; 1 µg/mL (≈ 5.84 µM) in [13]; 2 µg/mL (≈ 11.7 µM) in test [14]; 0.5 µg/mL (≈ 2.92 µM) in test [15]. The MIC in test [16] came out at 2 µg/mL (≈ 11.7 µM); in [17] it was 1 µg/mL (≈ 5.84 µM); in test [18], 1 µg/mL (≈ 5.84 µM); in test [19] it was 2 µg/mL (≈ 11.7 µM); in test [20], 1 µg/mL (≈ 5.84 µM); in test [21] it was 1 µg/mL (≈ 5.84 µM). Moreover, the MIC was 2 µg/mL (≈ 11.7 µM) in test [22], 0.5 µg/mL (≈ 2.92 µM) in test [23] and ≤ 0.125 µg/mL in test [24].

On to `NCCN[C@H]1CC[C@H](CC(=O)N[C@H]2Cc3cccc(C(=O)O)c3OB2O)CC1` [Tanibobactam, taniborbactam], for which the Ki at CTX-M-14 worked out at 0.0607 ± 0.0257 nM; on CTX-M-15, 0.0245 ± 0.0103 nM; at CTX-M-27 it was 0.0344 ± 0.013 nM; on SHV-2, 20 ± 2.39 nM; on SHV-5 it was 5.9 ± 1.8 nM; at SHV-12, 4.73 ± 0.182 nM. In addition, the Ki on ACT-17 was determined as 12.6 ± 1.55 nM; at PDC-11, 34.6 ± 2.2 nM; at KPC-2 it was 1.1 ± 0.229 nM; on KPC-3, 0.947 ± 0.259 nM; on KPC-38, 0.617 ± 0.0841 nM; at OXA-48 it was 204 ± 31 nM. In addition, the Ki at OXA-23 was > 100000 nM; on OXA-24, 2080 nM; on OXA-65, > 100000 nM; on OXA-66, 61700 nM; at OXA-72 it was 25200 nM; on VIM-1, 271 ± 46.7 nM. Further, the Ki on VIM-2 is 322 ± 50 nM; on IMP-1, > 100000 nM; at IMP-6, > 100000 nM.
